Test results taken from patent US20240366612A1, “COMPOUNDS AND METHODS FOR MODULATING NUCLEIC ACID SPLICING” (REMIX THERAPEUTICS INC., priority 2021, published 2024).
pIC50: −log10 of the molar value. Where a name gives a salt, the structure may show the parent alone.

Experiments:
[1] = test system: HiBiT-tagged HTT protein in K562 cells; assay: HiBiT protein abundance assay, HTT; format: cell-based, human; details: HiBiT-modified K562 cells, 24 hours, luminescence
Outline: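 K562 lines with the endogenous target HiBiT-tagged, seeded in IMDM+1% FBS, got a 10-point 3-fold dilution series (top final 10 μM, DMSO ≤0.25%) for 24 hours at 37° C. Lytic LgBiT luminescence was normalized against unmodified-K562 and DMSO-only controls, and IC50 was interpolated at 50% from a four-parameter logistic fit.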

in vitro = details: human

Row | Compound | pIC50 [1] | GI50 at 72 h (in vitro) [µM]
1 | Cc1cn2nc(-c3cc(=O)n4cc(N(C)C5CC(C)(C)NC(C)(C)C5)sc4n3)cc(C)c2n1 [Compound 205, 7-(2,8-dimethylimidazo[1,2-b]pyridazin-6-yl)-2-(methyl(2,2,6,6-tetramethylpiperidin-4-yl)amino)-5H-thiazolo[3,2-a]pyrimidin-5-one] | 5.00 to 6.00 | 1 to 10
2 | Cc1cn2cc(-n3cnc4nc(N(C)C5CC(C)(C)NC(C)(C)C5)sc4c3=O)cc(F)c2n1 [Compound 227, 6-(8-fluoro-2-methylimidazo[1,2-a]pyridin-6-yl)-2-(methyl(2,2,6,6-tetramethylpiperidin-4-yl)amino)thiazolo[4,5-d]pyrimidin-7(6H)-one, formate] | < 5.00 | > 10
3 | Cc1cn2cc(-c3nn4c(=O)cc(N(C)C5CC(C)(C)NC(C)(C)C5)nc4s3)cc(F)c2n1 [Compound 215, 2-(8-fluoro-2-methylimidazo[1,2-a]pyridin-6-yl)-7-(methyl(2,2,6,6-tetramethylpiperidin-4-yl)amino)-5H-[1,3,4]thiadiazolo[3,2-a]pyrimidin-5-one] | < 5.00 | 1 to 10
4 | Cc1cc(-c2nn3c(=O)cc(N4CCN(C)CC4)nc3s2)cc2cn(C)nc12 [Compound 210, 2-(2,7-dimethyl-2H-indazol-5-yl)-7-(4-methylpiperazin-1-yl)-5H-[1,3,4]thiadiazolo[3,2-a]pyrimidin-5-one] | 5.00 to 6.00 | 
